Results: patent US9586947B2, “Imidazoline derivatives, preparation methods thereof, and their applications in medicine” (priority 2012, dated 2017)
Read-outs that look alike come from different tables or passages of the source.

Assays:
[1] = test system: PSA secretion of LNCaP cells; assay: Inhibitory activity on PSA secretion of LNCaP cells; assay type: cell-based; settings: Homo sapiens, 96 h, read-out: IC50 (inhibition of PSA secretion of LNCaP cells)
LNCaP cells = assay: Proliferation inhibition of LNCaP cells (CCK-8); assay type: cell-based; settings: Homo sapiens, 144 h, cultured 3 + 3 days, CCK-8, OD at 450 nm
[2] = test system: PSA secretion of LNCaP-AR cells (AR-overexpressed LNCaP cells); assay: Agonist activity on PSA secretion of LNCaP-AR cells; assay type: cell-based; settings: 96 h, 4 days, OD value (test compounds)/OD value (blank control), blank control 100
Procedure: The following in vitro assay was performed to determine the activity of a high concentration of the compounds of the present invention for agitating the PSA secretion of LNCaP-AR cells (AR-overexpressed LNCaP cells, referred to as “LNCaP-AR cells” for short, constructed by a retroviral transfection method).
LNCaP-AR cells were subcultured in cell culture medium, resuspended in active carbon culture medium, and then inoculated into a 96-well plate (100 μl/well) with an inoculation density of 5×10^4 cells/well.
The test compounds were dissolved in DMSO (dimethyl sulfoxide) and prepared as a 10 mM stock solution. When used, the stock solution was diluted with DMSO into the two concentrations of 2 mM and 0.6 mM. Then, the diluted concentrations were each diluted with 20× active carbon culture medium, in order to ensure DMSO concentration in each culture system was 0.5%. Diluted test compounds remained to be tested.
10 μl of diluted test compounds were added to a 96-well plate and mixed gently. 10 μl of 0.5% DMSO diluted with active carbon culture medium was added to the blank control group.
After 4 days of incubation, 60 μl of cell cultural supernatants were collected, and the OD value of PSA per well was measured on a NOVO Star microplate reader using PSA kit (abnova, KA0208).
Agonist activity of the test compounds of the present invention on PSA secretion of LNCaP-AR cells was evaluated by the percentage of OD value (test compounds)/OD value (blank control). When the percentage value is greater than 100, the test compounds have agonist activity on PSA secretion of LNCaP-AR cells compared to the blank control. Conversely, when the percentage value is less than 100, the test compounds have no agonist activity on PSA secretion of LNCaP-AR cells compared to the blank control.

[3] = Pharmacokinetics assay in rats, intragastric administration; assay type: in vivo; settings: Sprague-Dawley, rat, po, male SD rats, 5 mg/kg; for Vd/F: read-out: Apparent Distribution Volume Vz/F; for AUC: read-out: Area Under Curve AUC; for CL/F: read-out: Clearance CLz/F; for half-life: read-out: Half-Life T½ (converted); for MRT: read-out: Mean Residence Time MRT; for Cmax: read-out: Plasma Conc. Cmax
Procedure: Male rats were used as test animals. The compounds of Example 6, Example 9, Example 11, Example 13, Example 15, Example 16, Example 17, Example 44, and Example 45 were administered intragastrically to rats to determine the drug concentration in plasma at different time points by LC/MS/MS method. The pharmacokinetic behavior of the compounds of the present invention was studied and evaluated in rats.
27 healthy adult male Sprague-Dawley (SD) rats, purchased from SINO-BRITISH SIPPR/BK LAB. ANIMAL LTD., CO, Certificate No.: SCXK (Shanghai) 2008-0016, were divided into 9 groups, with 3 rats in each group.
The appropriate amount of test compounds was weighed and mixed with 0.5% CMC-Na to prepare a 0.5 mg/mL suspension by an ultrasonic method.
After an overnight fast, 27 SD rats were divided into 9 groups, and administered the compounds intragastrically at a dose of 5.0 mg/kg and an administration volume of 10 mL/kg.
Compounds of Example 6, Example 9, Example 11, Example 13, Example 15, Example 16, Example 17, Example 44, and Example 45 were administered intragastrically to rats. Blood samples (0.1 mL) were taken from the orbital sinus before administration, and at 0.5 h, 1.0 h, 2.0 h, 3.0 h, 4.0 h, 6.0 h, 8.0 h, 11.0 h, and 24.0 h after administration, stored in heparinized tubes, and centrifuged for 5 minutes at 3,500 rpm to separate blood plasma. The plasma samples were stored at −20° C. The rats were fed 2 hours after administration.
The concentration of the different test compounds in rat plasma after intragastrically administering the test compounds was determined by LC-MS/MS method. The linearity of the method is 1.00-2000 ng/ml. Plasma samples were analyzed after protein precipitation was accomplished by the addition of methanol.

[4] = LNCaP cells, 1 nM testosterone medium, 4 days of incubation, PSA kit OD450

Structure (SMILES)	IC50 [1, 4] [nM]	IC50 (LNCaP cells) [nM]	activity at 3 µM [2] [%]	activity at 10 µM [2] [%]	Vd/F ([3]; plasma) [L/kg]	AUC ([3]; plasma) [ng·h/mL]	CL/F ([3]; plasma) [mL/min/kg]	half-life ([3]; plasma) [h]	MRT ([3]; plasma) [h]	Cmax ([3]; plasma) [ng/mL]	IC50 ([1]; LNCaP) [nM]	Vd/F ([3]; in vivo) [L/kg]	AUC ([3]; in vivo) [ng·h/mL]	CL/F ([3]; in vivo) [mL/min/kg]	half-life ([3]; in vivo) [h]	MRT ([3]; in vivo) [h]	Cmax ([3]; in vivo) [ng/mL]
CC1(C)C(=O)N(c2ccc(C#N)c(C(F)(F)F)c2)C(=S)N1c1ccc(OCCO)nc1 [Example 10, 4-(3-(6-(2-Hydroxyethoxy)pyridin-3-yl)-4,4-dimethyl-5-oxo-2-thioxoimidazolidin-1-yl)-2-(trifluoromethyl)benzonitrile]	23	131	74.7	68.1	–	–	–	–	–	–	–	–	–	–	–	–	–
CC1(C)C(=O)N(c2ccc(C#N)c(C(F)(F)F)c2)C(=S)N1c1ccc(OC[C@@H](O)CO)cc1 [Example 44, (S)-4-(3-(4-(2,3-Dihydroxypropoxy)phenyl)-4,4-dimethyl-5-oxo-2-thioxoimidazolidin-1-yl)-2-(trifluoromethyl)benzonitrile]	22	33	77.2	92.7	2.45 ± 0.376	19300 ± 4170	4.47 ± 1.08	6.41 ± 0.6	10.5 ± 1.3	1300 ± 275	–	–	–	–	–	–	–
CC1(C)C(=O)N(c2ccc(C#N)c(C(F)(F)F)c2)C(=S)N1c1ccc(OCC2(N)CC2)c(F)c1 [Example 6, 4-(3-(4-((1-Aminocyclopropyl)methoxy)-3-fluorophenyl)-4,4-dimethyl-5-oxo-2-thioxoimidazolidin-1-yl)-2-(trifluoromethyl)benzonitrile]	–	–	93.2	100	–	–	–	–	–	–	24	6.02 ± 1.69	16800 ± 7480	5.75 ± 2.44	13.1 ± 4.6	17.8 ± 6.2	1200 ± 330
CC1(C)C(=O)N(c2ccc(C#N)c(C(F)(F)F)c2)C(=S)N1c1ccc(O[C@H]2COC[C@@H]2O)c(F)c1 [Example 9, 4-(3-(3-fluoro-4-(((3S,4S)-4-hydroxytetrahydrofuran-3-yl)oxy)phenyl)-4,4-dimethyl-5-oxo-2-thioxoimidazolidin-1-yl)-2-(trifluoromethyl)benzonitrile]	–	–	90.8	85	–	–	–	–	–	–	26	4.59 ± 0.556	18800 ± 3300	4.52 ± 0.77	11.8 ± 1.1	18.3 ± 1.9	772 ± 83
CC1(C)C(=O)N(c2ccc(C#N)c(C(F)(F)F)c2)C(=S)N1c1ccc(OCCO)c(F)c1 [Example 12, 4-(3-(3-Fluoro-4-(2-hydroxyethoxy)phenyl)-4,4-dimethyl-5-oxo-2-thioxoimidazolidin-1-yl)-2-(trifluoromethyl)benzonitrile]	33	146	69.6	90.7	–	–	–	–	–	–	–	–	–	–	–	–	–
